# Measured values published in article PMC11703669 (Clinical cancer research : an official journal of the …, 2025).
# How the values were obtained:
# [1] = tested on: patients with R/R AML and a susceptible IDH1 mutation; details: cited from earlier work
# [2] = tested on: mutated IDH1; assay: Nonclinical pharmacology: inhibition of mutated IDH1; assay type: biochemical
# [3] = target: wild type IDH1 (Homo sapiens, UniProt O75874); assay: Nonclinical pharmacology: inhibition of wild type IDH1; assay type: biochemical
# wild type IDH1, sequence (O75874 whole entry): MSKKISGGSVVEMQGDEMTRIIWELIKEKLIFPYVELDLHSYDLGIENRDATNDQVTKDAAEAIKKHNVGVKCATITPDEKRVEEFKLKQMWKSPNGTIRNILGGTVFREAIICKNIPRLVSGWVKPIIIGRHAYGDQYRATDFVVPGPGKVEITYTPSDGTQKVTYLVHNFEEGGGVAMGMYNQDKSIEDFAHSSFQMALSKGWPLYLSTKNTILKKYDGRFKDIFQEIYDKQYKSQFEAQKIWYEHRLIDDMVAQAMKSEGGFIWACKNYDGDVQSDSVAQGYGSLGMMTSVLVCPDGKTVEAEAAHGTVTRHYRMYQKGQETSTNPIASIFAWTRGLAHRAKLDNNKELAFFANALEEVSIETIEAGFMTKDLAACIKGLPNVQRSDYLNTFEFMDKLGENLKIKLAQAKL
# [4] = tested on: mutated IDH2 proteins; assay: Nonclinical pharmacology: inhibition of mutated IDH2; assay type: biochemical
# [5] = tested on: cell lines expressing mutated IDH1 proteins (R132H, R132L, R132S, R132G, and R132C); assay: 2-HG production in cell lines expressing mutated IDH1 proteins; assay type: cell-based; details: read-out: IC50 for suppression of 2-HG production
# [6] = tested on: primary human AML cells; assay: Treatment of primary human AML cells; assay type: cell-based
# [7] = tested on: 2-HG plasma concentrations; assay: PK/PD analysis of 2-HG plasma concentrations in patients with AML; assay type: in vivo, human; details: 150 mg BID, by the end of the first cycle; %CV 122%
# [8] = Clinical pharmacokinetics after oral administration; assay type: in vivo, human
# [9] = Food effect study in healthy subjects; assay type: in vivo, human; details: single 150 mg dose
# [10] = target: cytochrome P450 (CYP)3A4 (Homo sapiens, UniProt P08684); assay: Metabolism by cytochrome P450 enzymes; assay type: in vitro ADME; details: minor contributions from CYP2C8, CYP2C9, CYP1A2, CYP2C19
# cytochrome P450 (CYP)3A4, sequence (P08684 whole entry): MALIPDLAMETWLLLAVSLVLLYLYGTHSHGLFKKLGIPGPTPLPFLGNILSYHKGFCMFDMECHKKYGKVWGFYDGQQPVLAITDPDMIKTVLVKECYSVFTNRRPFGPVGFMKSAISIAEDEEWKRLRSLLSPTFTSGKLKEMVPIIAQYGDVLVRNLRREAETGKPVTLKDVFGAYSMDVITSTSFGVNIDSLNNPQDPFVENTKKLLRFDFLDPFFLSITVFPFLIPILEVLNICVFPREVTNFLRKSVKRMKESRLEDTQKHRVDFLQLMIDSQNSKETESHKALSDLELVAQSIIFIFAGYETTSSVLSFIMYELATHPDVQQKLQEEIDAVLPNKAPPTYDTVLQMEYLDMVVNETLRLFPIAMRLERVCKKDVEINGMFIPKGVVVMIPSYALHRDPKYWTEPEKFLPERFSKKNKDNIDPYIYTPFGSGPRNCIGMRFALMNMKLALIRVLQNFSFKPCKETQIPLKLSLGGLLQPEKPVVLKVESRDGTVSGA
# [11] = Clinical drug-drug interaction with rifampin or itraconazole; assay type: in vivo
# [12] = tested on: CYP3A4; assay: Mechanistic static DDI risk assessment with in vitro data: CYP3A4 induction; assay type: in vitro ADME; details: at the recommended dosage
# [13] = tested on: CYP2B6; assay: Mechanistic static DDI risk assessment with in vitro data: CYP2B6 induction; assay type: in vitro ADME; details: at the recommended dosage
# [14] = tested on: CYP1A2; assay: Mechanistic static DDI risk assessment with in vitro data: CYP1A2 induction; assay type: in vitro ADME; details: at the recommended dosage
# [15] = tested on: CYP2C8; assay: Mechanistic static DDI risk assessment with in vitro data: CYP2C8 induction; assay type: in vitro ADME; details: at the recommended dosage
# [16] = tested on: CYP2C9; assay: Mechanistic static DDI risk assessment with in vitro data: CYP2C9 induction; assay type: in vitro ADME; details: at the recommended dosage
# [17] = tested on: OATP1B1; assay: Mechanistic static DDI risk assessment with in vitro data: OATP1B1 inhibition; assay type: in vitro ADME; details: at the recommended dosage
# [18] = tested on: CYP2C19; assay: Hepatocyte induction study: CYP2C19; assay type: in vitro ADME
# [19] = QTc interval assessment in patients; assay type: in vivo, human; details: elevated exposures under fed condition
# [20] = tested on: adult patients with R/R AML harboring an IDH1 R132 mutation; assay: Study 2102-HEM-101 pivotal cohort: efficacy; assay type: in vivo, human
# [21] = tested on: rats; assay type: in vivo; details: after 48 hours of exposure to UV light
# [22] = tested on: pregnant rats; assay: Embryo-fetal development study in rats; assay type: in vivo
# [23] = tested on: pregnant rabbits; assay: Embryo-fetal development study in rabbits; assay type: in vivo
# [24] = tested on: patients with R/R AML; details: in vivo
# [25] = tested on: rats; details: rat, in vivo
# [26] = tested on: cynomolgus monkeys; details: cynomolgus monkey, in vivo
# [27] = in vivo
# [28] = tested on: patients with R/R AML; assay: Study 2102-HEM-101 pivotal cohort: safety
# [29] = tested on: adult patients with R/R AML or myelodysplastic syndrome (MDS) harboring an IDH1 R132 mutation; assay: Study 2102-HEM-101 dose escalation/expansion portion
# [30] = concomitant multiple doses of rifampin, a strong CYP3A inducer
structure (smiles),measurement,setting,value
"N#Cc1ccnc(N2C(=O)CC[C@H]2C(=O)N(c2cncc(F)c2)[C@H](C(=O)NC2CC(F)(F)C2)c2ccccc2Cl)c1 [Ivosidenib, ivosidenib]",CR + CRh rate,[1]; R/R AML with susceptible IDH1 mutation,33%
same,"differentiation syndrome, all grades",[1],19%
same,"differentiation syndrome, grade 3 or higher",[1],13%
same,median duration of response,[1],8.2 months
same,rate of conversion of TD to TI,[1],37%
same,rate of ALT elevation,[1]; patients with R/R AML,15%
same,rate of AST elevation,[1]; patients with R/R AML,27%
same,rate of all grade QTc prolongation,[1]; patients with R/R AML,26%
"C[C@H](Nc1ccc(C#N)n(C)c1=O)c1cc2cc(Cl)ccc2[nH]c1=O [Olutasidenib, olutasidenib]",inhibitory activity against mutated IDH1,[2],inhibited
same,inhibitory activity against wild type IDH1,[3],little or no inhibitory activity
same,inhibitory activity against mutated IDH2 proteins,[4],little or no inhibitory activity
same,IC50,[5],0.008 to 0.116 µM
same,2-HG production,[6],suppressed 2-HG production
same,cell differentiation,[6],induced granulocytic/monocytic cell differentiation
same,cell proliferation,[6],increased cell proliferation
same,mean reduction of 2-HG plasma concentration,[7],59.1%
same,dose proportionality of Cmax and AUC,[8]; dose range of 100 to 300 mg,increased less than proportionally
same,time to steady-state plasma levels,"[8]; human, in vivo",≤ 14 days
same,half-life,"[8]; human, plasma, po",~67 h
same,time to maximum plasma concentration (Cmax),[8]; oral administration,approximately 4 hours
same,mean increase of AUCinf with a high-fat meal,[9]; CV% 18.3%,83%
same,mean increase of Cmax with a high-fat meal,[9]; CV% 20.6%,191%
same,share of metabolism by CYP3A4,[10],90%
same,differences in PK with itraconazole,"[11]; concomitant multiple doses of itraconazole, a strong CYP3A and P-gp inhibitor",No clinically significant differences
same,decrease of AUC with rifampin,[11]; [30],80%
same,decrease of Cmax with rifampin,[11]; [30],43%
same,CYP3A4 induction potential,[12],may induce
same,CYP2B6 induction potential,[13],may induce
same,CYP1A2 induction potential,[14],may induce
same,CYP2C8 induction potential,[15],may induce
same,CYP2C9 induction potential,[16],may induce
same,OATP1B1 inhibition potential,[17],inhibit
same,potential to induce CYP2C19,[18],cannot be ruled out
same,QT prolongation expected under a fed condition,[19],≤ 30 ms
same,CR + CRh rate,"[20]; 150 mg BID, 147 efficacy-evaluable patients, 95% CI 27-43%",35%
same,"CR + CRh, n (%)","[20]; 150mg BID, N=147",51 (35) n (%)
same,"CR, n (%)","[20]; 150mg BID, N=147",47 (32) n (%)
same,Median DOCR,"[20]; 150mg BID, N=147",28.1 months
same,Median DOCRh,"[20]; 150mg BID, N=147",3.6 months
same,"median duration of CR + CRh (DOCR + CRh, duration of response)","[20]; 150 mg BID, N=147, 95% CI 13.5, NR",25.9 months
same,conversion from transfusion dependence (TD) to transfusion independence (TI),[20]; 29 of 86 patients TD at baseline,34%
same,maintenance of TI in patients TI at baseline,[20]; 39/61 patients,64%
same,CR + CRh rate at interim analysis for efficacy,"[20]; 41 out of 123 efficacy evaluable subjects, 95% CI 25.1%-42.4%",33%
same,patients able to proceed to allogeneic stem cell transplantation after treatment,[20]; sixteen of 147 patients,11%
same,phototoxicity finding,[21],erythema in the skin
same,embryo-fetal development findings,[22],embryo-fetal death and altered fetal growth
same,embryo-fetal development findings,[23],embryo-fetal death and altered fetal growth
same,"Abdominal Pain, Any Grade",[24]; human,28 (18)
same,"Abdominal Pain, Grade ≥3",[24]; human,1 (1)
same,"Arthralgia, Any Grade",[24]; human,43 (28)
same,"Arthralgia, Grade ≥3",[24]; human,4 (3)
same,"Constipation, Any Grade",[24]; human,39 (26)
same,"Constipation, Grade ≥3",[24]; human,0
same,"Cough, Any Grade",[24]; human,26 (17)
same,"Cough, Grade ≥3",[24]; human,1 (1)
same,"Diarrhea, Any Grade",[24]; human,31 (20)
same,"Diarrhea, Grade ≥3",[24]; human,2 (1)
same,"Differentiation Syndrome, Any Grade",[24]; human,25 (16)
same,"Differentiation Syndrome, Grade ≥3",[24]; human,13 (8)
same,"Dyspnea, Any Grade",[24]; human,37 (24)
same,"Dyspnea, Grade ≥3",[24]; human,4 (3)
same,"Edema, Any Grade",[24]; human,27 (18)
same,"Edema, Grade ≥3",[24]; human,4 (3)
same,"Fatigue/Malaise, Any Grade",[24]; human,55 (36)
same,"Fatigue/Malaise, Grade ≥3",[24]; human,2 (1)
same,Grade 3 or higher adverse reaction: dyspnea,[24]; human,5%
same,Grade 3 or higher adverse reaction: hypertension,[24]; human,5%
same,Grade 3 or higher adverse reaction: leukocytosis,[24]; human,9%
same,Grade 3 or higher adverse reaction: transaminitis,[24]; human,12%
same,Grade 3 or higher differentiation syndrome,[24]; human,8%
same,"Headache, Any Grade",[24]; human,19 (13)
same,"Headache, Grade ≥3",[24]; human,0
same,"Hypertension, Any Grade",[24]; human,16 (10)
same,"Hypertension, Grade ≥3",[24]; human,7 (5)
same,"Leukocytosis, Any Grade",[24]; human,38 (25)
same,"Leukocytosis, Grade ≥3",[24]; human,14 (9)
same,"Mucositis, Any Grade",[24]; human,35 (23)
same,"Mucositis, Grade ≥3",[24]; human,5 (3)
same,"Nausea, Any Grade",[24]; human,57 (38)
same,"Nausea, Grade ≥3",[24]; human,0
same,"Pyrexia, Any Grade",[24]; human,36 (24)
same,"Pyrexia, Grade ≥3",[24]; human,1 (1)
same,"QTc prolongation TEAE, Grade 3 or higher",[24]; human,1%
same,"QTc prolongation TEAE, any grade",[24]; human,8%
same,"Rash, Any Grade",[24]; human,36 (24)
same,"Rash, Grade ≥3",[24]; human,2 (1)
same,"Transaminitis, Any Grade",[24]; human,31 (20)
same,"Transaminitis, Grade ≥3",[24]; human,18 (12)
same,"Vomiting, Any Grade",[24]; human,25 (16)
same,"Vomiting, Grade ≥3",[24]; human,1 (1)
same,"differentiation syndrome (DS), all grades",[24]; human,16%
same,dose reductions due to adverse reactions,[24]; human,11%
same,median time to onset of DS,[24]; human,14 days
same,median time to onset of transaminitis,[24]; human,1.2 months
same,median time to resolution of transaminitis,[24]; human,12 days
same,patients who discontinued therapy due to an AR,[24]; human,8%
same,patients with DS who had olutasidenib held,[24]; human,44%
same,patients with DS who recovered after treatment or dosage interruption,[24]; human,76%
same,patients with a Grade 3 or 4 TEAE,[24]; human,84%
same,patients with a Grade 3 or 4 hepatotoxicity TEAE,[24]; human,13%
same,patients with dose held due to QTc prolongation,[24]; human,1%
same,patients with therapy discontinued due to a hepatobiliary AR,[24]; human,5%
same,patients with therapy reduced due to a hepatobiliary AR,[24]; human,6%
same,patients with treatment interrupted due to an AR,[24]; human,32%
same,rate of ALT elevation,[24]; human,46%
same,rate of AST elevation,[24]; human,47%
same,treatment discontinuation due to DS,[24]; human,3%
same,treatment discontinuation due to gallbladder disorders,[24]; human,1%
same,treatment discontinuation due to transaminitis,[24]; human,3%
same,treatment interruption due to DS,[24]; human,7%
same,treatment interruption due to transaminitis,[24]; human,10%
same,Hy's Law cases,[24],no confirmed Hy’s Law cases
same,patients with dose reduced or discontinued due to QTc prolongation,[24],no patients
same,general toxicology findings,[25],"altered glucose and lipid metabolism, inflammation, and the GI tract, liver, kidney, and cardiovascular system as the main organs of toxicity"
same,general toxicology findings,[26],"altered glucose and lipid metabolism, inflammation, and the GI tract, liver, kidney, and cardiovascular system as the main organs of toxicity"
same,tissue distribution,[27],binding of olutasidenib to melanin-containing tissues
same,deaths due to complications from DS,"[28]; 2 deaths, of on treatment deaths",4%
same,30-day mortality,[28]; 13 patients,8%
same,deaths on treatment (on or within 28 days of the last dose),[28]; 45 deaths,29%
same,total deaths,[28]; 101 of 153 patients,66%
same,on treatment deaths due to underlying AML or complications from AML,[28]; thirty-seven of 45 on treatment deaths,82%
same,"patients with CR, CRh or CRi (preliminary efficacy)","[29]; 150mg BID, dose escalation/expansion portion, 5/13 patients",38%
same,dose-limiting toxicities,[29]; dose escalation,no dose-limiting toxicities observed
